PMC7939445, “Exploitation of dihydroorotate dehydrogenase (DHODH) and p53 activation as therapeutic targets: A case study in polypharmacology” (The Journal of Biological Chemistry, 2021)
Read-outs that look alike come from different tables or passages of the source.

Legend:
ARN8 cells [1] = assay: Propidium iodide flow cytometry (cell cycle); format: cell-based, human; details: 48 h; for Effect on cell cycle distribution / cell death: 10 μM tenovins 1 and 33 or 200 nM brequinar; for Effect of uridine or OA on the compound's cell cycle effect: 10 μM, 100 μM uridine or 1 mM OA, not with DHO
Experimental: ARN8 cells were seeded at 30,000 per well, respectively, in 6-well plates and incubated for 24 h. All compounds were diluted to 10× stocks in fully supplemented growth medium. Cells were incubated with the compounds for 48 h. Cell culture medium was removed and placed into Falcon tubes. Wells were washed twice with 1× PBS with the washes saved in the Falcon tubes to harvest floating dead cells. Cells remaining in the wells were trypsinized with 200 μl of 1× trypsin/EDTA (Sigma–Aldrich #T4174). Following detachment, fresh growth medium was added to each well, and the contents were removed and placed in the relevant tubes. Any remaining cells in the plate were then gathered by washing twice with 2 ml of 1× PBS with the washes saved and added to the relevant tubes. The tubes were centrifuged at 500 × g for 5 min. Cell pellets were washed twice with 1× PBS. The pellets were resuspended in 1 ml of 1× PBS and added dropwise to 3 ml of 99.9% ethanol while vortex mixing at high speed. Cells were then fixed at –20 °C for 24 h. Following fixation, cells were pelleted at 1390 × g for 5 min. The cells were washed three times with 2 ml of 1× PBS containing 3% FBS with centrifugation at 1390 × g between washes. Cells were resuspended in 0.5 ml of PBS containing 10 μg of propidium iodide (Invitrogen #P3566) and 50 μg of RNase A (Sigma–Aldrich #R4642) and incubated on ice in the dark for 10 min. Flow cytometry was performed using a BD Biosciences FACScan or FACSCalibur with 10,000 events counted within the gating region.

recombinant human DHODH [2] = target: T1, recombinant human DHODH (Homo sapiens, UniProt Q02127); assay: DHODH enzymatic assay (kinetic, DCIP reduction); format: biochemical
T1 construct: made in house
Experimental: Enzyme assays were performed with 6 nM recombinant human DHODH prepared as described ([36]). The reaction mixture for these kinetic assays consisted of 1 mM DHO, 100 μM 2,3-dimethoxy-5-methyl-p-benzoquinone (Sigma–Aldrich #D9150), and 100 μM 2,6-dichlorophenolindophenol sodium salt (DCIP; Sigma–Aldrich #D1878) in enzyme buffer (50 mM Tris-HCl pH 8.0, 0.1% Triton X-100, 150 mM KCl). A stock solution of 20 mM DCIP was prepared in enzyme buffer and filtered through filter paper (20−25-μm pore size) just before use. Loss in absorbance by DCIP was measured at 595 nm at room temperature in a stepped time course (8 × 2 min, 8 × 3 min, 6 × 5 min). The observed decrease in absorbance over time was linear between 8 and 26 min. Therefore, for each concentration of inhibitor tested, a value for DHODH's Vmax was estimated by linear regression within this time frame. The IC50 is defined as the concentration of inhibitor that gives Vmax([I]) = Vmax(DMSO)/2.

recombinant human DHODH [3] = target: T1, recombinant human DHODH; assay: Thermal shift assay using intrinsic FMN fluorescence; format: binding; details: 200 μM compound, 5 μM DHODH
Experimental: 5 μM recombinant human DHODH prepared as described ([36]) was used in this assay. The assay relied upon the intrinsic fluorescence of the embedded flavin mononucleotide (FMN) within the DHODH as a proxy for unfolding of DHODH across a temperature range, much in the same manner as the thermal shift assay using SYPRO Orange ([37]). A PCR machine with a filter set with an excitation range of 475–500 nm and an emission range of 520–590 nm was used for this experiment. 5 μM DHODH was prepared with 200 μM compound with a final concentration of 0.5% DMSO in each sample in buffer consisting of 50 mM HEPES and 150 mM NaCl. The final assay volume was 10 μl. The samples were heated across a temperature range with the fluorescence emission from FMN monitored at each temperature.

[4] = system: p53 transcriptional activity in ARN8 cells; assay: p53 transcriptional activation (CPRG) cell reporter assay; format: cell-based, human; details: 18 h, 100 μM uridine, 1 mM DHO or 1 mM OA
Experimental: ARN8 cells were seeded in a 96-well plate at a density of 20,000 cells/well in a volume of 100 μl of fully supplemented growth medium. […] Subsequently, 50 μl of 1× reporter lysis buffer (Promega #E4030) was added to each well, and the plates were stored at –20 °C for at least 2 h.

U2OS or ARN8 cells = assay: Uridine uptake assay ([3H]uridine, scintillation counting); format: cell-based, human; details: 5 μM
Experimental: 100,000 (24-h assay) or 200,000 (15-min assay) U2OS or ARN8 cells were seeded per well in 6-well plates in 2 ml of fully supplemented culture medium as described above. 24 h postseeding, medium was removed, and cells were treated with the indicated compounds for either 15 min or 24 h in 2 ml of FBS-free medium supplemented with serum replacement 3 (Sigma–Aldrich #S2640). At the end of the treatment, an extra well of each treatment was harvested in 100 μl of 1× LDS (62.5 mM Tris-HCl, pH 6.8, 10% glycerol, 1% LDS) for quantification of protein levels to determine the level of cell death after 24 h for normalization with protein concentration determined by the Bio-Rad DC protein assay (Bio-Rad #5000111). [^3H]Uridine (PerkinElmer Life Sciences #NET367001MC) was prepared in serum replacement medium to a final emission of 3.65 μCi ml^−1 and added to cells for 10 min. Following 10 min, the cells were washed with four quick changes of 1 mM unlabeled uridine prepared in ice-cold transport buffer (20 mM Tris-HCl, pH 7.4, 130 mM NaCl, 3 mM K2HPO4, 1 mM MgCl2, 5 mM glucose, 2 mM CaCl2). The samples were then harvested in 100 μl of 10% SDS. 900 μl of Optiphase Supermix (PerkinElmer Life Sciences #1200-439) was added to each sample, and the cpm were measured using a 1450 MicroBeta JET for liquid scintillation (PerkinElmer Life Sciences/Wallac).

[5] = system: p53, hdm2 and p21 in ARN8 cells; assay: Western blotting of p53 and p53 targets in ARN8 cells; format: cell-based, human; details: 5 μM; for Treatment time at which p53 protein levels increased: blotted at 2, 4, 6 or 8 h; for Effect of OA and uridine on p53 protein and downstream signaling (hdm2, p21): 24 h, 100 μM uridine or 1 mM OA
Experimental: 150,000 ARN8, HCT116 p53 WT, or HCT116 p53 KO cells were seeded on 6-well plates in 2 ml of fully supplemented medium as described above. […] A protein assay was conducted using the Bio-Rad DC protein analysis kit (Bio-Rad #5000111), and the protein levels were normalized between samples. […] The transfer was conducted using the Trans-Blot Turbo preset program for standard semidry transfer (30 min). All membranes were blocked in 5% milk (w/v) in PBS-T containing 0.1% Tween 20 (v/v) (Sigma–Aldrich P9416). All antibodies were made up in 5% milk (w/v) in PBS-T. All antibody incubations were either overnight at 4 °C or at room temperature for 1 h. […] All secondary antibodies were polyclonal rabbit anti-mouse antibodies conjugated to horseradish peroxidase (DAKO, Glostrup, Denmark #P0260) and diluted at concentrations of 1:2000 (v/v). […] All blots were normalized to their respective vehicle control and quantified using ImageLab where quantification was required (Bio-Rad version 5.2.1 build 11).

ARN8 cells [6] = assay: SRB assay in ARN8 cells with nucleotide supplementation; format: cell-based, human; details: 72 h, 100 μM uridine, 1 mM DHO or 1 mM OA
Experimental: Cells were seeded in a 96-well plate at a density of 500 cells/well (ARN8) in a volume of 100 μl of fully supplemented growth medium and incubated as described above for 24 h. SKNSH p53 WT pCMV neo cells were seeded at 7500 cells/well in 100 μl of fully supplemented growth medium and incubated as described above for 24 h. SKNSH ddp53 cells were seeded at a density of 6000 cells/well in 100 μl of fully supplemented growth medium and incubated as described above for 24 h. Cells were checked for adherence and treated with tenovins in DMSO supplemented with 100 μM uridine, 1 mM DHO, or 1 mM OA. The final percentage of DMSO per well was <0.2%. Cells were incubated for 72 h with compounds. Following incubation, medium was removed from the cells and replaced by 150 μl of 1× sterile PBS and 50 μl of 40% (w/v) TCA (Sigma–Aldrich #T9159) in distilled H2O and incubated at 4 °C for 1 h to fix the cells. The plate was then washed with three changes of water with all liquid allowed to drain from the plate. 50 μl of 0.4% (w/v) sulforhodamine B (Sigma–Aldrich #230162) with 1% (v/v) acetic acid (Sigma–Aldrich #320099) in H2O was added to each well and incubated for 30 min. Excess dye was washed out with three changes of 1% (v/v) acetic acid in H2O. The remaining dye was solubilized in 100 μl of 10 mM unbuffered Tris-base (Sigma–Aldrich #93362) per well, and absorbance was read at 490 nm on a spectrophotometer.

[7] = system: HCT116 p53 WT and p53 KO cells; assay: IncuCyte cell confluence measurements; format: cell-based, human; details: HCT116 p53 WT or KO, 5 μM, confluence over 72 h
Experimental: ARN8 or HCT116 p53 WT or KO cells were seeded in a 96-well plate at a density of 4000 cells/well in a volume of 100 μl. […] The medium of the assigned wells was replaced with 100 μl of fresh medium containing a 5 μM concentration of the corresponding Tenovins or DMSO control and placed in an IncuCyte S3 system located inside a CO2 incubator.

[8] = 6 nM recombinant human DHODH, average of three independent repeats, read-out: DHODH inhibition (enzyme assay), IC50

T1 sequence (Q02127 whole entry): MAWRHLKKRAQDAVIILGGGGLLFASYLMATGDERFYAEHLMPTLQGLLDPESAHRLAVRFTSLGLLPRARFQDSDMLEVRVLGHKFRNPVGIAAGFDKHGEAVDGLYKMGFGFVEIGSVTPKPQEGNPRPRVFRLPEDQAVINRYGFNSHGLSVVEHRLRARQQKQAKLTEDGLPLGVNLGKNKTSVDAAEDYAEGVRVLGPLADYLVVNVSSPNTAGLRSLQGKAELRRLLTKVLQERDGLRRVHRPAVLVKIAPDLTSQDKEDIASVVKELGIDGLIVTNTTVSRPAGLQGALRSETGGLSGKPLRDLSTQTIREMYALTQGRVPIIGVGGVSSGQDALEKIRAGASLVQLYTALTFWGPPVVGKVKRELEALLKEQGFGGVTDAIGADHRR

Structure (SMILES)	Effect on cell cycle distribution / cell death (ARN8 cells [1])	IC50 (recombinant human DHODH [2]; [8]) [nM]	Inhibition of DHODH enzyme activity (in words) (recombinant human DHODH [2]; biochemical assay)	Stabilization of DHODH in thermal shift assay (recombinant human DHODH [3])	Effect of supplementation on induction of p53 transcriptional activity [4]	Inhibition of uridine uptake after 15 min (U2OS or ARN8 cells)	Treatment time at which p53 protein levels increased [5] [h]	Effect of OA and uridine on p53 protein and downstream signaling (hdm2, p21) [5]	Effect of supplementation on tumor cell growth inhibition (SRB) (ARN8 cells [6])	Effect of uridine or OA on the compound's cell cycle effect (ARN8 cells [1])	IC50 (recombinant human DHODH [2]; enzyme assay, read-out: DHODH IC50) [nM]	Effect on cell growth in p53 KO versus p53 WT cells [7]
Cc1c(-c2ccc(-c3ccccc3F)cc2)nc2ccc(F)cc2c1C(=O)O [brequinar, reference compound]	increase in the percentage of cells in S-phase											
CN(C)CCCCC(=O)Nc1ccc(NC(=O)NC(=O)c2ccc(C(C)(C)C)cc2)cc1 [Tenovin 33]	increase in the percentage of cells in S-phase	> 20000	incapable of inhibiting DHODH enzyme activity	nor was it able to stabilize DHODH in a thermal shift assay	completely ablated	able to inhibit uridine uptake	8	ablation of p53 downstream signaling	reduced upon supplementation with uridine or OA	effect on the cell cycle largely prevented		
CC(=O)Nc1ccc(NC(=S)NC(=O)c2ccc(C(C)(C)C)cc2)cc1 [Tenovin 1]	increase in cell death	113				unable to alter uridine uptake			reduced upon supplementation with uridine or OA	effect on the cell cycle largely prevented	~113	
CN(C)CCCCC(=O)Nc1ccc(NC(=S)NC(=O)c2ccc(C(C)(C)C)cc2)cc1 [Tenovin 6]		500			partially ablated	able to inhibit uridine uptake	2	ablation of p53 downstream signaling	no rescue of cell viability			effects on cell growth ablated in the p53 KO cells
